The values that follow come from patent US4322496A, “Inhibition of lactate oxidase” (Eastman Kodak Company, priority 1980, dated 1982).

The target of assay [1] is T1, lactate oxidase activity in partially purified L-α-glycerophosphate oxidase (Enterococcus casseliflavus, UniProt C9AC47).
T1 sequence (C9AC47 1-367): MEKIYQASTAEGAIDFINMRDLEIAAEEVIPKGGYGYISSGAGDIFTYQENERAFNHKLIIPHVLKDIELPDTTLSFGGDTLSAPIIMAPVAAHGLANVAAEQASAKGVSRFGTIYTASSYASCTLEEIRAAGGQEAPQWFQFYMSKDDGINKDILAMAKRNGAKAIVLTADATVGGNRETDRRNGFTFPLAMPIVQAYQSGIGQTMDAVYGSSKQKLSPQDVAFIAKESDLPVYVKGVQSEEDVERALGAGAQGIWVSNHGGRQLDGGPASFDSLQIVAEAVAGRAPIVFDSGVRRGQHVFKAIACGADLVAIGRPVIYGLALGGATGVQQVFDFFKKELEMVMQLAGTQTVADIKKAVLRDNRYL
Nature of the assay: Lactate blank reaction in dry chemistry triglyceride test element. In kind it is biochemical. The note with it: for Response to Lactate (DR): partially purified α-GPO, 10 μl DL-lactate 20 mg/dl, 540 nm, 7 min, 37° C. The procedure:
In the examples, non-fibrous, multilayer, "dry chemistry" analytical elements for determination of serum triglycerides were formulated having the following structure and composition: […]
The enzymatic reagent layer composition of the above-noted "dry chemistry" analytical element contained deionized gelatin (5.4 g/m^2); gel hardener (32.4 mg/m^2); poly(methyl acrylate-co-2-acrylamido-2-methylpropanesulfonic acid-co-2-acetoacetoxyethyl methacrylate) having a monomer weight ratio of (88.8:4.7:6.5) as peroxidase stabilizer (5.4 g/m^2); 0.05 M potassium phosphate buffer, pH 7.0; Triton X-100 surfactant (389 mg/m^2); 2-(3,5-dimethoxy-4-hydroxyphenyl)4,5-bis(4-dimethylaminophenyl)imidazole as a leuco dye (405 mg/m^2 dispersed in 2,4-di-n-amylphenol (4.05 g/m^2); antioxidant (324 mg/m^2); MgCl (103 mg/m^2); adenosinetriphosphate (1.35 g/m^2); peroxidase (7020 U/m^2); glycerol kinase (324 U/m^2); and either purified or partially purified L-α-glycerophosphate oxidase (2840 U/m^2). When the partially purified L-α-glycerophosphate oxidase was used, glycolate was incorporated into that layer in the amounts noted below in Example 2.
A. Dry Chemistry Test Element Mode: Dry chemistry analytical elements for the determination of triglycerides were prepared with either the purified or partially purified L-α-GPO as described above. To each element, a 10 μl sample of DL-lactate (20 mg/dl) was applied and the reflection density of the element, DR, at 540 nm was measured through the element support after a seven-minute incubation at 37° C.

In assay [2] the target is T2, L-α-Glycerophosphate Oxidase (Enterococcus casseliflavus, UniProt O86963).
T2 construct: L-α-glycerophosphate oxidase was purified from Streptococcus faecium; made in house; host or cells: Streptococcus faecium ATCC 12755 (native organism, not recombinant)
T2 sequence (O86963 1-609): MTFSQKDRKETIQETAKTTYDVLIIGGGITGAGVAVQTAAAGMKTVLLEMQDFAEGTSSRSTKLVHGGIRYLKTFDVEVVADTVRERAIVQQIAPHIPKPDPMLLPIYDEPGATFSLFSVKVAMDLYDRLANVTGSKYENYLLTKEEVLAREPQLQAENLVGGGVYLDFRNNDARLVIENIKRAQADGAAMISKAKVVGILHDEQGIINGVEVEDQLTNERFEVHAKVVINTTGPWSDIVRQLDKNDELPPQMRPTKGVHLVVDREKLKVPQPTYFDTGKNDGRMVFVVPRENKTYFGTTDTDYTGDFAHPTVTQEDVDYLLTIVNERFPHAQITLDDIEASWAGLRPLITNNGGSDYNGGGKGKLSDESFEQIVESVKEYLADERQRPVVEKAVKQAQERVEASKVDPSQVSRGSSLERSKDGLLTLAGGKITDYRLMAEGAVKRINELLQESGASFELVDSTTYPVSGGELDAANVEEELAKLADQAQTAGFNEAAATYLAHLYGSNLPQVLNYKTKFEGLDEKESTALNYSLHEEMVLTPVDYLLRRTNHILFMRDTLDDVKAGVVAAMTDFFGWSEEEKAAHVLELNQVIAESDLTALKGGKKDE
The experiment in a line: L-α-glycerophosphate oxidase enzyme assay (absorbance at 430 nm). In kind it is biochemical. The procedure:
In the examples, oxidative enzymes were prepared from Streptococcus faecium ATCC 12755. L-lactate oxidase was isolated from Streptococcus faecium as a 0-50% ammonium sulfate fraction as described in Esders et al., U.S. Pat. No. 4,166,763 issued Sept. 4, 1979. L-α-glycerophosphate oxidase was purified from Streptococcus faecium as described in Table V, of Research Disclosure Publication No. 16146 published Sept. 10, 1977. Extensively purified L-α-glycerophosphate oxidase (material carried through the whole purification sequence) contained L-α-glycerophosphate:lactate oxidase activity ratios of (1700-3000:1), whereas the partially purified L-α-glycerophosphate oxidase (material isolated as the 50-80% ammonium sulfate fraction) contained L-α-glycerophosphate:lactate oxidase activity ratios of 30-100:1.
In the examples, enzyme assays for L-α-glycerophosphate oxidase were carried out as follows: Assay reaction mixtures contained in a total volume of 1.0 ml: 100 μmoles potassium phosphate buffer, pH 7.0, 66 μg orthodianisidine, 25 μg horseradish peroxidase (4.6 purpuragallin units) and 200 μmoles DL-α-glycerophosphate (at pH 7.0). Compounds to be tested as potential inhibitors were added to the reaction mixtures as indicated in Example 1. Samples were equilibrated at 37° C. and the reactions were initiated by the addition of an aliquot of enzyme. Absorbance at 430 nm was measured in a Beckman 25 spectrophotometer. Initial rates were calculated from the linear portion of the curve.

In a further assay the target is T3, L-Lactate Oxidase (Enterococcus casseliflavus, UniProt C9AC47).
T3 sequence (C9AC47 1-367): T1 sequence (C9AC47 1-367)
The experiment in a line: biochemical. The procedure: In the examples, oxidative enzymes were prepared from Streptococcus faecium ATCC 12755. L-lactate oxidase was isolated from Streptococcus faecium as a 0-50% ammonium sulfate fraction as described in Esders et al., U.S. Pat. No. 4,166,763 issued Sept. 4, 1979. L-α-glycerophosphate oxidase was purified from Streptococcus faecium as described in Table V, of Research Disclosure Publication No. 16146 published Sept. 10, 1977.
In the examples, enzyme assays for lactate oxidase were carried out as follows: Assay reaction mixtures contained in a total volume of 1.0 ml: 100 μmoles potassium phosphate buffer, pH 7.0, 25 μmoles lactic acid, […] horseradish peroxidase (4.6 purpurogallin units), and 0.25 μmoles orthodianisidine. Compounds to be tested as potential inhibitors for lactate oxidase were added to the assay reaction mixtures as indicated in Example 1. Samples were equilibrated at 30° C. and then reactions were initiated by addition of Streptococcus faecium lactate oxidase. Absorbance at 430 nm was measured in a Beckman 25 spectrophotometer. Initial rates were calculated from the linear portion of the curve.

SMILES strings stand for the structures.

`O=C(O)CO` [Glycolic Acid]: in assay [1] (81 mg/m^2 glycolic acid), the “lactate blank relative to control (purified α-GPO)” value was found to be 1.6 times control and the “Response to Lactate (DR)” value is given as 0.04. For the same compound, in assay [1] (405 mg/m^2 glycolic acid), the “reaction with lactate compared with control (purified α-GPO)” value was “less than that observed with the purified L-α-glycerophosphate oxidase” and the “Response to Lactate (DR)” value was 0.01. Moreover, the “inhibition of L-α-GPO (in words)” value in assay [2] is recorded as “do not inhibit”. Further, the inhibition at 5000 µM in assay [2] (compound at 5 mM, 37° C., pH 7.0, read-out: L-α-Glycerophosphate Oxidase Percent Inhibition) came to 0%. Also, the “inhibition of lactate oxidase activity (in words)” value against L-Lactate Oxidase was “greatly inhibit”. Moreover, on L-Lactate Oxidase (acid 10mM, read-out: LO % Inhibition), the inhibition at 10000 µM amounted to 90%. The inhibition at 5000 µM on L-Lactate Oxidase (compound at 5 mM, 30° C., pH 7.0, rate without compound = 100%, read-out: L-Lactate Oxidase Percent Inhibition) turned out to be 90%.
